The subject of this test is IL-2 production. The test can be described thus: Inhibition of IL-2 production in PHA-activated Jurkat cells (ELISA). Conditions: Homo sapiens, Jurkat, 20 h, PHA 2.5 μg/mL, IL-2 ELISA. Format: cell-based. Here is the method: Jurkat cells were placed in a 96 well plate (0.5 million cells per well in 1% FBS medium) then a test compound of this invention was added at different concentrations. After 10 minutes, the cells were activated with PHA (final concentration 2.5 μg/mL) and incubated for 20 hours at 37° C. under CO2. The final volume was 200 μL. Following incubation, the cells were centrifuged and the supernatants collected and stored at −70° C. prior to assaying for IL-2 production. A commercial ELISA kit (IL-2 Eli-pair, Diaclone Research, Besancon, France) was used to detect production of IL-2, from which dose response curves were obtained. The IC50 value was calculated as the concentration at which 50% of maximum IL-2 production after stimulation was inhibited versus a non-stimulation control.
For `O=C(Nc1c(F)cccc1F)c1nc2c(s1)-c1cc(-c3ccncc3)ccc1CCC2` [Compound 125], the IC50 is 30 to 100 nM.
In the case of `COc1cccc2c1CCCc1nc(NC(=O)c3ccncc3C)ncc1-2` [Compound 92] it was more than 1000 nM; in that of `Cn1cncc1-c1ccc2c(c1)-c1sc(C(=O)Nc3c(F)cccc3F)nc1CCC2` [Compound 129], not above 30 nM; in that of `O=C(Nc1nc2c(s1)-c1ccc(-n3ccnc3)cc1CCC2)c1c(F)cccc1F` [Compound 74], 100 to 250 nM.
As for `O=C(Nc1c(F)cccc1F)c1nc2c(s1)-c1cc(-c3ccc(F)nc3)ccc1CCC2` [Compound 120], the figure is 250 to 500 nM.
As for `COc1ccc2c(c1)-c1sc(C(=N)Nc3c(F)cccc3F)nc1CCC2` [Compound 152], the figure is 500 to 1000 nM; as for `COc1ccc2c(c1)-c1sc(NC(=O)c3ccncc3F)nc1CCC2` [Compound 3], more than 1000 nM; as for `COc1ccc2c(c1)-c1sc(NC(=O)c3c(F)cccc3F)nc1CCO2` [Compound 4], more than 1000 nM.
Turning to `CN1Cc2ccc(Br)cc2-c2sc(NC(=O)c3c(F)cccc3F)nc2C1=O` [Compound 135], the IC50 was more than 1000 nM.
In the case of `COc1cc(-c2ccc3c(c2)-c2sc(C(=O)Nc4c(F)cccc4F)nc2CCC3)ccn1` [Compound 119] it was 100 to 250 nM.
In the case of `CN1Cc2ccc(Br)cc2-c2sc(C(=O)Nc3c(F)cccc3F)nc2C1=O` [Compound 140] it was more than 1000 nM; in that of `O=C(Nc1nc2c(s1)-c1ccc(-c3nnn[nH]3)cc1CCC2)c1c(F)cccc1F` [Compound 77], more than 1000 nM; in that of `COc1ccc2c(c1)-c1sc(/C(=N/c3c(F)cccc3F)SC)nc1CCC2` [Compound 144], more than 1000 nM.
The compound `O=C(Nc1ccc2c(c1)CCCc1cnc(-c3ccccn3)nc1-2)c1c(F)cccc1F` [Compound 106] gave an IC50 of 500 to 1000 nM.
In the case of `N#Cc1ccc2c(c1)-c1sc(NC(=O)c3c(F)cccc3F)nc1CCC2` [Compound 80] it was more than 1000 nM; in that of `N#Cc1ccc2c(c1)CCCc1nc(NC(=O)c3c(F)cccc3F)sc1-2` [Compound 59], 30 to 100 nM; in that of `O=C(Nc1nc2c(s1)-c1cc(-c3ccccn3)ccc1CCC2)c1c(F)cccc1F` [Compound 82], more than 1000 nM.
In the case of `Cc1csc(-c2cccc3c2CCCc2nc(NC(=O)c4c(F)cccc4F)sc2-3)n1` [Compound 71] it was 250 to 500 nM; in that of `O=C(Nc1c(F)cccc1F)c1nc2c(s1)-c1cc(Br)ccc1CCC2` [Compound 18], 30 to 100 nM.
As for `O=C(Nc1nc2c(s1)-c1ccc(I)cc1CCC2)c1c(F)cccc1F` [Compound 72], the figure is 30 to 100 nM; as for `O=Cc1cccc2c1CCCc1nc(NC(=O)c3c(F)cccc3F)sc1-2` [Compound 67], 500 to 1000 nM.
Compound `Nc1ccc(-c2ccc3c(c2)-c2sc(C(=O)Nc4c(F)cccc4F)nc2CCC3)cn1` [Compound 115] registered an IC50 of 30 to 100 nM.
In the case of `O=C(Nc1nc2c(s1)-c1ccccc1CCC2)c1c(F)cccc1F` [Compound 16] it was 250 to 500 nM; in that of `COc1ccc2c(c1)-c1sc(NC(=O)c3ccncc3F)nc1CCO2` [Compound 9], more than 1000 nM.
In the case of `O=C(Nc1ccc2c(c1)CCCc1cnc(-c3ccncc3)nc1-2)c1c(F)cccc1F` [Compound 108] it was 30 to 100 nM.
The compound `O=C(Nc1c(F)cccc1F)c1nc2c(s1)-c1nc(-c3cccnc3)sc1CCC2` [Compound 133] showed an IC50 of 30 to 100 nM.
As for `COc1ccc2c(c1)-c1sc(C(=O)Nc3c(F)cccc3F)nc1CCC2` [Compound 5], the figure is not above 30 nM; as for `O=C(Nc1nc2c(s1)-c1cc(Br)ccc1CCC2)c1c(F)cccc1F` [Compound 17], more than 1000 nM.
In the case of `O=C(Nc1c(F)cccc1F)c1nc2c(s1)-c1cc(-c3cncnc3)ccc1CCC2` [Compound 124] it was 30 to 100 nM.
In the case of `COc1ccc2c(c1)-c1cnc(NC(=O)c3c(F)cccc3F)nc1CCC2` [Compound 93] it was 500 to 1000 nM; in that of `COc1ccc2c(c1)CCCc1nc(NC(=O)c3c(F)cccc3F)cnc1-2` [Compound 96], 250 to 500 nM; in that of `Cc1nc(-c2ccc3c(c2)CCCc2nc(NC(=O)c4c(F)cccc4F)sc2-3)no1` [Compound 60], 30 to 100 nM.
On to `Fc1cccc(F)c1NC(=S)c1nc2c(s1)-c1cc(-c3cnco3)ccc1CCC2` [Compound 148], for which the IC50 was 30 to 100 nM.
In the case of `COc1ccc2c(c1)-c1cnc(NC(=O)c3ccncc3C)nc1CCO2` [Compound 95] it was more than 1000 nM; in that of `C/N=C(/Nc1c(F)cccc1F)c1nc2c(s1)-c1cc(OC)ccc1CCC2` [Compound 145], more than 1000 nM.
`O=C(Nc1c(F)cccc1F)c1nc2c(s1)-c1cc(-c3cccnc3F)ccc1CCC2` [Compound 122] displayed an IC50 not above 30 nM.
Consider `COc1cccc2c1CCCc1nc(NC(=O)c3ccncc3F)sc1-2` [Compound 14], for which the 50% inhibitory concentration (IC50) lay in the range of 100 to 250 nM.
In the case of `O=C(Nc1c(F)cccc1F)c1nc2c(s1)-c1cc(CN3CCOCC3)ccc1CCC2` [Compound 42] it was more than 1000 nM; in that of `N#Cc1cc2c(s1)CCCc1nc(NC(=O)c3c(F)cccc3F)sc1-2` [Compound 86], more than 1000 nM; in that of `Cn1nnc(-c2ccc3c(c2)-c2sc(C(=O)Nc4c(F)cccc4F)nc2CCC3)n1` [Compound 41], 250 to 500 nM.
In the case of `O=C(Nc1nc2c(s1)-c1ccc(-c3ncco3)cc1CCC2)c1c(F)cccc1F` [Compound 76] it was 30 to 100 nM.
As for `O=C(Nc1c(F)cccc1F)c1nc2c(s1)-c1cc(-c3nnn[nH]3)ccc1CCC2` [Compound 40], the figure is more than 1000 nM.
Compound `O=C(Nc1nc2c(=O)oc3ccc(C(F)(F)F)cc3c2s1)c1c(F)cccc1F` [Compound 1] yielded an IC50 of more than 1000 nM.
As for `COc1ccc2c(c1)CCCCc1nc(NC(=O)c3c(F)cccc3F)ncc1-2` [Compound 98], the figure is more than 1000 nM; as for `Cn1nnnc1-c1ccc2c(c1)-c1sc(C(=O)Nc3c(F)cccc3F)nc1CCC2` [Compound 39], not above 30 nM; as for `O=c1oc2ccc(C(F)(F)F)cc2c2sc(NCc3c(F)cccc3F)nc12` [Compound 7], more than 1000 nM.
As for `O=C(Nc1nc2c(s1)-c1ccncc1CCC2)c1c(F)cccc1F` [Compound 87], the figure is 30 to 100 nM.

One may read the IC50 as the concentration needed to halve the response being measured. A higher IC50 goes with weaker potency.

These data come from patent publication US8779154B2, “Fused ring compounds for inflammation and immune-related uses” (priority 2006, dated 2014).
